Measured values as given in patent US4038401A, “Novel indole derivative” (John Wyeth & Brother Limited, priority 1976, dated 1977).
Like-named read-outs stand apart in the source and are kept apart here.

Assays:
in vivo = conditions: mouse
[1] = Hypotensive and anti-hypertensive activity (statement in words); format: in vivo; conditions: compared with indoramin
rats = format: in vivo, rat; conditions: for Duration of sedation: 50 mg/kg; for Increase in comparative sedation: oral 10, 25 or 50 mg/kg, perphenazine and haloperidol rated at 10
Protocol: Twelve rats of each type were split into […] and dosed orally with 10, 25 or 50 mg/kg of the test compound in a vehicle comprising hydroxymethylcellulose (0.5%) in (0.9% saline). Each rat was housed singly, after dosing and observed closely for 2 hours, then intermittently for a further four hours, behavioural changes being noted.
The animals were left at least 72 hours before re-dosing to ensure the disappearance of residual hypotensive and sedative effects.

[2] = system: rats rendered hypertensive; experiment: Anti-hypertensive activity in renal hypertensive rats (systolic pressure); format: in vivo, rat; conditions: 12 rats
Protocol: Anti-hypertensive activity is determined by the following procedure:
Male or female rats are rendered hypertensive by applying a figure of 8 ligature around one kidney and contralateral nephrectomy. Blood pressure stabilises at a hypertensive level after 6 weeks. Systolic pressure is measured indirectly using an E and M Pneumatic Tail Pulse Transducer and a Devices M2 recorder. A control group of rats is run with each group reacted with drug. Each group usually consists of six rats. Drugs are usually administered by the IP or oral routes. Pressures are read prior to drug administration and at 2 and 24 hours thereafter.
Blood pressure is expressed as % of control values at x hours after an oral dose of 25 mg/kg. In the test 12 rats were used instead of the usual 6.

laboratory animals = experiment: Toxicity and sedation, tests in laboratory animals (statement in words); conditions: compared with indoramin
[3] = normotensive rat (male and female)
[4] = renal hypertensive rat (female)
[5] = spontaneous hypertensive rat (male)
[6] = 2 hours after oral dose of 25 mg/kg
[7] = 6 hours after oral dose of 25 mg/kg
[8] = 24 hours after oral dose of 25 mg/kg

## O=C(NC1CCN(CCCC(=O)c2c[nH]c3ccccc23)CC1)c1ccccc1 [4-Benzamido-1-[4-(indol-3-yl)-4-oxobutyl]piperidine]
In vivo; ip
  LD50: 542 mg/kg
  LD50 at 24 h: 1000 mg/kg
In vivo; po
  LD50: > 4000 mg/kg
  LD50 at 24 h: > 4000 mg/kg
[1]
  hypotensive and anti-hypertensive activity: comparable to that of indoramin
rats; [3]
  Duration of sedation: 6 h
  Approximate sedative potency ratio: 1
rats; [4]
  Duration of sedation: 6 h
  Approximate sedative potency ratio: 1
rats; [5]
  Duration of sedation: 6 h
  Approximate sedative potency ratio: 1
rats; normotensive rats
  Increase in comparative sedation: 1
rats; renal hypertensive rats
  Increase in comparative sedation: 2
rats; spontaneously hypertensive rats
  Increase in comparative sedation: 1
[2]; [6]
  Blood pressure expressed as % of control values: 60.9 % of control values
[2]; [7]
  Blood pressure expressed as % of control values: 62.0 % of control values
[2]; [8]
  Blood pressure expressed as % of control values: 99.0 % of control values
Laboratory animals
  sedation: much less sedative
  toxicity: much less toxic

## O=C(NC1CCN(CCc2c[nH]c3ccccc23)CC1)c1ccccc1 [Indoramin, 3-[2(4-benzamidopiperid-1-xl)ethyl] indole, reference compound]
[2]; [6]
  Blood pressure expressed as % of control values: 78.0 % of control values
[2]; [7]
  Blood pressure expressed as % of control values: 76.0 % of control values
[2]; [8]
  Blood pressure expressed as % of control values: 98.0 % of control values

## O=C(CCCN1CCC(O)(c2ccc(Cl)cc2)CC1)c1ccc(F)cc1 [haloperidol, reference compound]
rats; rats, reference rating of the scale
  Sedation rating of comparison tranquillisers: 10

## OCCN1CCN(CCCN2c3ccccc3Sc3ccc(Cl)cc32)CC1 [perphenazine, reference compound]
rats; rat, in vivo
  Sedation rating of comparison tranquillisers: 10
